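All cell lines were grown in 96-well plates and treated with compound for 48 hours. GI50 is the concentration that inhibits growth by half. TGI marks complete inhibition of growth.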
What was measured:
Assay in all cases: NCI tumour cell line growth inhibition, 48 h
[1] = test system: 786-0 renal
[2] = test system: A498 renal
[3] = test system: A549 NSCLC
[4] = test system: ACHN renal
[5] = test system: BT-549 breast
[6] = test system: CAKI-1 renal
[7] = test system: CCRF-CEM leukemia
[8] = test system: COLO 205 colon
[9] = test system: DU-145 prostate
[10] = test system: EKVX NSCLC
[11] = test system: HCC-2998 colon
[12] = test system: HCT-116 colon
[13] = test system: HCT-15 colon
[14] = test system: HL-60(TB) leukemia
[15] = test system: HOP-62 NSCLC
[16] = test system: HOP-92 NSCLC
[17] = test system: HS 578T breast
[18] = test system: HT29 colon
[19] = test system: IGROV1 ovarian
[20] = test system: K-562 leukemia
[21] = test system: KM12 colon
[22] = test system: LOX IMVI melanoma
[23] = test system: M14 melanoma
[24] = test system: MALME-3M melanoma
[25] = test system: MCF7 breast
[26] = test system: MDA-MB-231 breast
[27] = test system: MDA-MB-435
[28] = test system: MOLT-4 leukemia
[29] = test system: NCI-H226 lung
[30] = test system: NCI-H23 lung
[31] = test system: NCI-H460 lung
[32] = test system: NCI-H522 lung
[33] = test system: NCI/ADR-RES ovarian
[34] = test system: OVCAR-3 ovarian
[35] = test system: OVCAR-4 ovarian
[36] = test system: OVCAR-5 ovarian
[37] = test system: OVCAR-8 ovarian
[38] = test system: PC-3 prostate
[39] = test system: RPMI-8226 leukemia
[40] = test system: RXF 393 renal
[41] = test system: SF-268 CNS
[42] = test system: SF-295 CNS
[43] = test system: SF-539 CNS
[44] = test system: SK-MEL-2 melanoma
[45] = test system: SK-MEL-28 melanoma
[46] = test system: SK-MEL-5 melanoma
[47] = test system: SK-OV-3 ovarian
[48] = test system: SN12C renal
[49] = test system: SNB-19 CNS
[50] = test system: SNB-75 CNS
[51] = test system: SR leukemia
[52] = test system: SW-620 colon
[53] = test system: T-47D breast
[54] = test system: TK-10 renal
[55] = test system: U251 CNS
[56] = test system: UACC-257 melanoma
[57] = test system: UACC-62 melanoma
[58] = test system: UO-31 renal

CCC(=C(c1ccc(OCCN2CCCCCC2)cc1)c1ccc(OCCN2CCCCCC2)cc1)c1ccc(Cl)cc1
GI50 [1]: 578 nM | TGI [1]: 1180 nM | GI50 [2]: 4880 nM | TGI [2]: 9720 nM | GI50 [3]: 1110 nM | TGI [3]: 4210 nM | GI50 [4]: 1550 nM | TGI [4]: 5790 nM | GI50 [5]: 3380 nM | TGI [5]: 7520 nM | GI50 [6]: 1000 nM | TGI [6]: 4490 nM | GI50 [7]: 657 nM | TGI [7]: 1790 nM | GI50 [8]: 586 nM | TGI [8]: 1210 nM | GI50 [9]: 1360 nM | TGI [9]: 5020 nM | GI50 [10]: 3520 nM | TGI [10]: 8010 nM | GI50 [11]: 553 nM | TGI [11]: 1130 nM | GI50 [12]: 582 nM | TGI [12]: 1360 nM | GI50 [13]: 631 nM | TGI [13]: 1450 nM | GI50 [14]: 683 nM | TGI [14]: 1600 nM | GI50 [15]: 2640 nM | TGI [15]: 7580 nM | GI50 [16]: 1340 nM | TGI [16]: 6070 nM | GI50 [17]: 727 nM | TGI [17]: 1870 nM | GI50 [18]: 652 nM | TGI [18]: 1410 nM | GI50 [19]: 1350 nM | TGI [19]: 5210 nM | GI50 [20]: 424 nM | TGI [20]: 1030 nM | GI50 [21]: 1060 nM | TGI [21]: 3600 nM | GI50 [22]: 502 nM | TGI [22]: 1010 nM | GI50 [23]: 639 nM | TGI [23]: 1300 nM | GI50 [24]: 576 nM | TGI [24]: 1270 nM | GI50 [25]: 91.6 nM | TGI [25]: 785 nM | GI50 [26]: 2060 nM | TGI [26]: 7760 nM | GI50 [27]: 644 nM | TGI [27]: 1360 nM | GI50 [28]: 685 nM | TGI [28]: 1740 nM | GI50 [29]: 4480 nM | TGI [29]: 9560 nM | GI50 [30]: 3670 nM | TGI [30]: 8190 nM | GI50 [31]: 645 nM | TGI [31]: 1250 nM | GI50 [32]: 3540 nM | TGI [32]: 8210 nM | GI50 [33]: 1930 nM | TGI [33]: 6520 nM | GI50 [34]: 947 nM | TGI [34]: 3010 nM | GI50 [35]: 3900 nM | TGI [35]: 8710 nM | GI50 [36]: 3730 nM | TGI [36]: 8250 nM | GI50 [37]: 4280 nM | TGI [37]: 9410 nM | GI50 [38]: 1700 nM | TGI [38]: 6140 nM | GI50 [39]: 749 nM | TGI [39]: 1640 nM | GI50 [40]: 754 nM | TGI [40]: 2250 nM | GI50 [41]: 2330 nM | TGI [41]: 7470 nM | GI50 [42]: 644 nM | TGI [42]: 1310 nM | GI50 [43]: 643 nM | TGI [43]: 1370 nM | GI50 [44]: 3960 nM | TGI [44]: 8630 nM | GI50 [45]: 623 nM | TGI [45]: 1200 nM | GI50 [46]: 722 nM | TGI [46]: 1730 nM | GI50 [47]: 4230 nM | TGI [47]: 8590 nM | GI50 [48]: 3440 nM | TGI [48]: 8580 nM | GI50 [49]: 833 nM | TGI [49]: 2340 nM | GI50 [50]: 1970 nM | TGI [50]: 6850 nM | GI50 [51]: 585 nM | TGI [51]: 1340 nM | GI50 [52]: 555 nM | TGI [52]: 1210 nM | GI50 [53]: 649 nM | TGI [53]: 5310 nM | GI50 [54]: 4370 nM | TGI [54]: 9000 nM | GI50 [55]: 597 nM | TGI [55]: 1150 nM | GI50 [56]: 651 nM | TGI [56]: 1400 nM | GI50 [57]: 664 nM | TGI [57]: 1680 nM | GI50 [58]: 1720 nM | TGI [58]: 6670 nM

Source: PubChem BioAssay (NCI)
